Measured values taken from EPA's ToxValDB 9.5 (doi:10.2903/j.efsa.2011.2152).
≈ marks a conversion by molar mass, not a printed value.

Key:
[1] = test system: Cyprinus carpio; details: chronic/long-term; duration: 28 days
[2] = test system: Daphnia magna; details: chronic/long-term; duration: 21 days
[3] = test system: Oryctolagus sp.; details: reproduction developmental; body weight
[4] = test system: Coturnix japonica; details: acute; oral; mortality
[5] = test system: Tagia sp.; details: acute; duration: 14 days; mortality
[6] = test system: Oncorhynchus mykiss; details: acute; duration: 96 hours; mortality
[7] = test system: Rattus norvegicus
[8] = test system: Bird; details: reproductive; mortality
[9] = test system: Aphidius rhopalosiphi; experiment: LR50; higher = less toxic; details: not reported; mortality
[10] = test system: Typhlodromus pyri; experiment: LR50; higher = less toxic; details: not reported; mortality

## O=C(O)COc1ccc2ccccc2c1 [2-Naphthoxyacetic acid]
[1]
  NOEC: 10 mg/L
[2]
  NOEC: 6.7 mg/L
[3]
  NOAEL: 60 mg/kg-day
[4]
  LD50: > 2000 mg/kg-day
[5]
  LC50: 0.045 g/ha
[6]
  LC50: 2.39 µg/mL (≈ 11.8 µM)
[7]; acute, oral, F, mortality
  LD50: 1420 mg/kg-day
[7]; developmental, development
  NOAEL: 60 mg/kg-day
[7]; reproduction developmental, mortality
  NOAEL: 30 mg/kg-day
[7]; subchronic, duration: 90 days, oral, organ weight
  NOAEL: 10 mg/kg-day
[8]
  NOEC: 10 mg/kg-day
[9]
  LR50: > 100 g/ha
[10]
  LR50: > 80 g/ha
